Where a SMILES comes first, the peptide text is derived from it.

One assay has as its system E. coli 25922. In kind it is cell-based, Escherichia coli. As to conditions: 25922, 24 h. The method, then:
(§1) The antibacterial activity of the peptides was measured using a method adopted from the Clinical Laboratory Standards Institute (CLSI), with modifications. 50 μL bacterial cells solution with 1000-fold of OD600 = 0.4 was mixed with 50 μL of each peptide of various concentration ranged from 2 to 64 μM dissolved in BSA (0.2% with 0.01% acetic acid) and incubated in sterile 96-well plates at 37°C for 24 h. The MICs were calculated as the lowest concentration of peptide with no microbial growth being observed. Broth with microbial cells and uninoculated broth were used as positive control and negative control, respectively. The tests were performed at least three times.

The test system of the next assay is E. coli UB 1005. The assay is described as follows: MIC measurement (modified CLSI broth microdilution). Format: cell-based, Escherichia coli. The note with it: peptide 2-64 μM in 0.2% BSA with 0.01% acetic acid, 37°C, 24 h, at least three times. Here is the method: as §1
For another assay, the system named is P. aeruginosa 27853. In kind it is cell-based, Pseudomonas aeruginosa. As to conditions: 27853, 24 h. The method, then:
as §1

The subject of a further assay is S. epidermidis 12228. Format: cell-based, Staphylococcus epidermidis. As to conditions: 12228, 24 h. Here is the method: as §1
In a further assay the test system is S. aureus 29213. Format: cell-based, Staphylococcus aureus. As to conditions: 29213, 24 h. Here is the method: as §1
The next assay has as its system MRSA* 43300. In kind it is cell-based, methicillin-resistant Staphylococcus aureus. The note with it: * 43300, 24 h. Here is the method: as §1
The next assay deals with L. rhamnosus 1.0385. In kind it is cell-based, Lactobacillus rhamnosus. The note with it: 24 h. Here is the method:
as §1

Another assay deals with L. rhamnosus 1.0386. Format: cell-based, Lactobacillus rhamnosus. The note with it: 24 h. Here is the method:
as §1

The test system of another assay is L. rhamnosus 1.0911. Format: cell-based, Lactobacillus rhamnosus. The note with it: 24 h. The method, then:
as §1

The subject of the next assay is L. rhamnosus 1.9025. In kind it is cell-based, Lactobacillus rhamnosus. The note with it: 24 h. Here is the method: as §1
In another assay the test system is L. rhamnosus 7469. Format: cell-based, Lactobacillus rhamnosus. The note with it: 24 h. Here is the method: as §1
A further assay concerns L. plantarum 8014. In kind it is cell-based. As to conditions: 24 h. The method, then: as §1
The next assay concerns pathogens. Description: Geometric mean of MICs against pathogens. In kind it is cell-based. As to conditions: six pathogenic strains of Table 2. The method, then: as §1
Another assay deals with Lactobacillus. In kind it is cell-based. As to conditions: probiotic strains of Table 2. Here is the method: as §1

In the case of `N=C(N)NCCC[C@H](NC(=O)[C@H](CCCNC(=N)N)NC(=O)[C@H](Cc1c[nH]c2ccccc12)NC(=O)[C@H](CS)NC(=O)[C@H](Cc1c[nH]c2ccccc12)NC(=O)[C@H](Cc1c[nH]c2ccccc12)NC(=O)[C@H](Cc1c[nH]c2ccccc12)NC(=O)[C@H](CS)NC(=O)[C@H](Cc1c[nH]c2ccccc12)NC(=O)[C@H](CCCNC(=N)N)NC(=O)[C@@H](N)CCCNC(=N)N)C(N)=O` [Peptide S1] (H-RRWCWWWCWRR-NH2; N-terminus assumed), the “MIC E. coli 25922” value against E. coli 25922 is listed as over 64 μ M. Besides, the “MIC E. coli UB 1005” value in the assay with E. coli UB 1005 was determined as 16 μ M. Further, the “MIC P. aeruginosa 27853” value with P. aeruginosa 27853 stood at 8 μ M. Also, the “MIC S. epidermidis 12228” value in the assay on S. epidermidis 12228 is listed as 8 μ M. For the same compound, the “MIC S. aureus 29213” value with S. aureus 29213 was found to be 8 μ M. Besides, in the assay on MRSA* 43300, the “MIC MRSA* 43300” value is on record as 4 μ M. The “MIC L. rhamnosus 1.0385” value against L. rhamnosus 1.0385 is 16 μ M. Besides, the “MIC L. rhamnosus 1.0386” value against L. rhamnosus 1.0386 is reported as over 64 μ M. Moreover, in the assay on L. rhamnosus 1.0911, the “MIC L. rhamnosus 1.0911” value is over 64 μ M. For the same compound, the “MIC L. rhamnosus 1.9025” value against L. rhamnosus 1.9025 is reported as over 64 μ M. Moreover, the “MIC L. rhamnosus 7469” value against L. rhamnosus 7469 was over 64 μ M. Besides, the “MIC L. plantarum 8014” value in the assay with L. plantarum 8014 amounted to 8 μ M.

Regarding `N=C(N)NCCC[C@H](NC(=O)[C@H](CCCNC(=N)N)NC(=O)[C@H](Cc1c[nH]c2ccccc12)NC(=O)[C@H](Cc1ccc(O)cc1)NC(=O)[C@H](Cc1c[nH]c2ccccc12)NC(=O)[C@H](Cc1c[nH]c2ccccc12)NC(=O)[C@H](Cc1c[nH]c2ccccc12)NC(=O)[C@H](Cc1ccc(O)cc1)NC(=O)[C@H](Cc1c[nH]c2ccccc12)NC(=O)[C@H](CCCNC(=N)N)NC(=O)[C@@H](N)CCCNC(=N)N)C(N)=O` [Peptide S2] (H-RRWYWWWYWRR-NH2), the “MIC E. coli 25922” value with E. coli 25922 is reported as 32 μ M. In addition, the “MIC E. coli UB 1005” value in the assay on E. coli UB 1005 was 32 μ M. For the same compound, in the assay with P. aeruginosa 27853, the “MIC P. aeruginosa 27853” value came out at 8 μ M. In addition, in the assay on S. epidermidis 12228, the “MIC S. epidermidis 12228” value turned out to be 8 μ M. Further, in the assay on S. aureus 29213, the “MIC S. aureus 29213” value turned out to be 8 μ M. Further, the “MIC MRSA* 43300” value against MRSA* 43300 is reported as 8 μ M. In addition, in the assay on L. rhamnosus 1.0385, the “MIC L. rhamnosus 1.0385” value was determined as 16 μ M. In addition, the “MIC L. rhamnosus 1.0386” value with L. rhamnosus 1.0386 came out at 16 μ M. Further, in the assay on L. rhamnosus 1.0911, the “MIC L. rhamnosus 1.0911” value was over 64 μ M. The “MIC L. rhamnosus 1.9025” value against L. rhamnosus 1.9025 is over 64 μ M. Further, the “MIC L. rhamnosus 7469” value in the assay with L. rhamnosus 7469 is over 64 μ M. Moreover, the “MIC L. plantarum 8014” value against L. plantarum 8014 came to 4 μ M.

For `N=C(N)NCCC[C@H](NC(=O)[C@H](CCCNC(=N)N)NC(=O)[C@H](Cc1c[nH]c2ccccc12)NC(=O)[C@H](CC(N)=O)NC(=O)[C@H](Cc1c[nH]c2ccccc12)NC(=O)[C@H](Cc1c[nH]c2ccccc12)NC(=O)[C@H](Cc1c[nH]c2ccccc12)NC(=O)[C@H](CC(N)=O)NC(=O)[C@H](Cc1c[nH]c2ccccc12)NC(=O)[C@H](CCCNC(=N)N)NC(=O)[C@@H](N)CCCNC(=N)N)C(N)=O` [Peptide S3] (H-RRWNWWWNWRR-NH2), the “MIC E. coli 25922” value against E. coli 25922 is given as over 64 μ M. Besides, in the assay on E. coli UB 1005, the “MIC E. coli UB 1005” value is over 64 μ M. In addition, the “MIC P. aeruginosa 27853” value in the assay on P. aeruginosa 27853 is over 64 μ M. For the same compound, the “MIC S. epidermidis 12228” value in the assay with S. epidermidis 12228 is over 64 μ M. Further, the “MIC S. aureus 29213” value in the assay with S. aureus 29213 was over 64 μ M. Besides, the “MIC MRSA* 43300” value against MRSA* 43300 is over 64 μ M. In addition, in the assay on L. rhamnosus 1.0385, the “MIC L. rhamnosus 1.0385” value was over 64 μ M. Further, in the assay with L. rhamnosus 1.0386, the “MIC L. rhamnosus 1.0386” value was over 64 μ M. In the assay on L. rhamnosus 1.0911, the “MIC L. rhamnosus 1.0911” value is over 64 μ M. Further, in the assay on L. rhamnosus 1.9025, the “MIC L. rhamnosus 1.9025” value is on record as over 64 μ M. Besides, the “MIC L. rhamnosus 7469” value against L. rhamnosus 7469 is listed as over 64 μ M. In addition, in the assay on L. plantarum 8014, the “MIC L. plantarum 8014” value is given as over 64 μ M.

For the compound `N=C(N)NCCC[C@H](NC(=O)[C@H](CCCNC(=N)N)NC(=O)[C@H](Cc1c[nH]c2ccccc12)NC(=O)[C@H](CCC(N)=O)NC(=O)[C@H](Cc1c[nH]c2ccccc12)NC(=O)[C@H](Cc1c[nH]c2ccccc12)NC(=O)[C@H](Cc1c[nH]c2ccccc12)NC(=O)[C@H](CCC(N)=O)NC(=O)[C@H](Cc1c[nH]c2ccccc12)NC(=O)[C@H](CCCNC(=N)N)NC(=O)[C@@H](N)CCCNC(=N)N)C(N)=O` [Peptide S4] (H-RRWQWWWQWRR-NH2), the “MIC E. coli 25922” value in the assay on E. coli 25922 is 4 μ M. Besides, in the assay on E. coli UB 1005, the “MIC E. coli UB 1005” value is 4 μ M. Moreover, the “MIC P. aeruginosa 27853” value in the assay with P. aeruginosa 27853 was found to be 4 μ M. For the same compound, the “MIC S. epidermidis 12228” value against S. epidermidis 12228 is reported as 4 μ M. In addition, the “MIC S. aureus 29213” value against S. aureus 29213 is given as 4 μ M. Besides, in the assay on MRSA* 43300, the “MIC MRSA* 43300” value stood at 4 μ M. Further, in the assay with L. rhamnosus 1.0385, the “MIC L. rhamnosus 1.0385” value worked out at 16 μ M. For the same compound, the “MIC L. rhamnosus 1.0386” value against L. rhamnosus 1.0386 is 64 μ M. In addition, in the assay with L. rhamnosus 1.0911, the “MIC L. rhamnosus 1.0911” value was over 64 μ M. Besides, the “MIC L. rhamnosus 1.9025” value in the assay on L. rhamnosus 1.9025 was over 64 μ M. Also, the “MIC L. rhamnosus 7469” value with L. rhamnosus 7469 is given as over 64 μ M. In the assay on L. plantarum 8014, the “MIC L. plantarum 8014” value turned out to be 8 μ M.

Consider `C[C@@H](O)[C@H](NC(=O)[C@H](Cc1c[nH]c2ccccc12)NC(=O)[C@H](Cc1c[nH]c2ccccc12)NC(=O)[C@H](Cc1c[nH]c2ccccc12)NC(=O)[C@@H](NC(=O)[C@H](Cc1c[nH]c2ccccc12)NC(=O)[C@H](CCCNC(=N)N)NC(=O)[C@@H](N)CCCNC(=N)N)[C@@H](C)O)C(=O)N[C@@H](Cc1c[nH]c2ccccc12)C(=O)N[C@@H](CCCNC(=N)N)C(=O)N[C@@H](CCCNC(=N)N)C(N)=O` [Peptide S5] (H-RRWTWWWTWRR-NH2), for which, in the assay with E. coli 25922, the “MIC E. coli 25922” value is given as 2 μ M. The “MIC E. coli UB 1005” value against E. coli UB 1005 was determined as 2 μ M. The “MIC P. aeruginosa 27853” value with P. aeruginosa 27853 came to 4 μ M. In the assay on S. epidermidis 12228, the “MIC S. epidermidis 12228” value is listed as 2 μ M. Moreover, the “MIC S. aureus 29213” value against S. aureus 29213 came to 1 μ M. Besides, the “MIC MRSA* 43300” value in the assay with MRSA* 43300 was found to be 4 μ M. Besides, in the assay on L. rhamnosus 1.0385, the “MIC L. rhamnosus 1.0385” value is reported as over 64 μ M. Further, the “MIC L. rhamnosus 1.0386” value in the assay with L. rhamnosus 1.0386 was over 64 μ M. For the same compound, the “MIC L. rhamnosus 1.0911” value in the assay on L. rhamnosus 1.0911 is over 64 μ M. In addition, the “MIC L. rhamnosus 1.9025” value in the assay with L. rhamnosus 1.9025 was over 64 μ M. The “MIC L. rhamnosus 7469” value with L. rhamnosus 7469 is over 64 μ M. For the same compound, the “geometric mean (GM) of MICs against pathogens” value with pathogens was found to be 2.24 µM. Besides, the “MIC L. plantarum 8014” value against L. plantarum 8014 is over 64 μ M. Moreover, the “MIC against Lactobacillus” value against Lactobacillus is given as “more than 64 μM”.

`N=C(N)NCCC[C@H](NC(=O)[C@H](CCCNC(=N)N)NC(=O)[C@H](Cc1c[nH]c2ccccc12)NC(=O)CNC(=O)[C@H](Cc1c[nH]c2ccccc12)NC(=O)[C@H](Cc1c[nH]c2ccccc12)NC(=O)[C@H](Cc1c[nH]c2ccccc12)NC(=O)CNC(=O)[C@H](Cc1c[nH]c2ccccc12)NC(=O)[C@H](CCCNC(=N)N)NC(=O)[C@@H](N)CCCNC(=N)N)C(N)=O` [Peptide S6] (H-RRWGWWWGWRR-NH2): in the assay with E. coli 25922, the “MIC E. coli 25922” value turned out to be 4 μ M. In addition, the “MIC E. coli UB 1005” value with E. coli UB 1005 stood at 2 μ M. For the same compound, the “MIC P. aeruginosa 27853” value in the assay with P. aeruginosa 27853 came out at 8 μ M. In the assay with S. epidermidis 12228, the “MIC S. epidermidis 12228” value is over 64 μ M. For the same compound, the “MIC S. aureus 29213” value against S. aureus 29213 came out at 16 μ M. In the assay on MRSA* 43300, the “MIC MRSA* 43300” value was 16 μ M. For the same compound, the “MIC L. rhamnosus 1.0385” value in the assay with L. rhamnosus 1.0385 is over 64 μ M. Also, the “MIC L. rhamnosus 1.0386” value in the assay on L. rhamnosus 1.0386 was over 64 μ M. For the same compound, in the assay on L. rhamnosus 1.0911, the “MIC L. rhamnosus 1.0911” value is over 64 μ M. Moreover, the “MIC L. rhamnosus 1.9025” value in the assay on L. rhamnosus 1.9025 is recorded as over 64 μ M. Besides, in the assay with L. rhamnosus 7469, the “MIC L. rhamnosus 7469” value was over 64 μ M. The “MIC L. plantarum 8014” value against L. plantarum 8014 is on record as over 64 μ M.

(Values after article PMC7160233, “Peptides With Triplet-Tryptophan-Pivot Promoted Pathogenic Bacteria Membrane Defects” (Frontiers in Microbiology, 2020).)
